These results are taken from patent US7179823B1, “5-membered n-heterocyclic compounds with hypoglycemic and hypolipidemic activity” (Takeda Pharmaceutical Company Limited, priority 1999, dated 2007).

Usually EC50 stands for the midpoint of the concentration-response curve. A high value points to a need for much substance.

Molecules are shown by their SMILES.

The target in the assay is T1, PPARγ-RXRα heterodimer (Homo sapiens, UniProt P37231).
T1 construct: expressed in transfected cells; host or cells: CHO-K1
T1 sequence (P37231 1-477 isoform P37231-2): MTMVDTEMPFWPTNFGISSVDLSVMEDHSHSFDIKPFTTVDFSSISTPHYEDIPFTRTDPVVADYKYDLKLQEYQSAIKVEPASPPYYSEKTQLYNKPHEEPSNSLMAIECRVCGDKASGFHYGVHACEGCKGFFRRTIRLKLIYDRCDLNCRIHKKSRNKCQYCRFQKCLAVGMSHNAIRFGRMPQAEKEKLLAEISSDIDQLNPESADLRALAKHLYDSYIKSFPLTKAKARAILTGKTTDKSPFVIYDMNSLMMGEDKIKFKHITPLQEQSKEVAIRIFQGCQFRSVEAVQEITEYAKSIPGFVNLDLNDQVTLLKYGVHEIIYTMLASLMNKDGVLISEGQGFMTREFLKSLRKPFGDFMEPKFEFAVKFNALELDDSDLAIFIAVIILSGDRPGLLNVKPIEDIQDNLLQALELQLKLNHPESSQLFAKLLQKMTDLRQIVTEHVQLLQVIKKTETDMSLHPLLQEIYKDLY
T1 sequence (P19793 1-462 partner): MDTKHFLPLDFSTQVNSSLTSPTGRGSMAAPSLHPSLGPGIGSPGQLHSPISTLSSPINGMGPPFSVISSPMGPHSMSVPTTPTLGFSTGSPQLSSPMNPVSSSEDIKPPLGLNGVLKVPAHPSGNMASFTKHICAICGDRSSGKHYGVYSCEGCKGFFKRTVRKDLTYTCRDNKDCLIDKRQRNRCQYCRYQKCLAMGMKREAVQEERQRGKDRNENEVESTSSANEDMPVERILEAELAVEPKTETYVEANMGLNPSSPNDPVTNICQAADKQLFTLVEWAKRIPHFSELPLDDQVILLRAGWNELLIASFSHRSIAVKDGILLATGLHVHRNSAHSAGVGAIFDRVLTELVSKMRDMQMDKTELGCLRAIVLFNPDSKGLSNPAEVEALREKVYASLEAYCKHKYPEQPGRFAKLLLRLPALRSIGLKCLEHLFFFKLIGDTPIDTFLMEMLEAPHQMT
Put plainly: PPARγ-RXRα heterodimer ligand activity (luciferase reporter, PPARγ:RXRα:4ERPP/CHO-K1 cells). As to conditions: 48 hours, concentration for 50% of the maximum fold induction. The class given is cell-based. How it is done:
(PPARγ-RXRα Heterodimer Ligand Activity)
A PPARγ:RXRα:4ERPP/CHO-K1 cells obtained in Reference Example 5 described later were cultured in HAM F12 medium (produced by NISSUI SEIYAKU) containing 10% Fetal bovine serum (produced by Life Technologies, Inc., USA) and then inoculated to a 96-well white plate (produced by Corning Costar Corporation, USA) at the density of 2×10^4 cells/well, and cultured in a CO2 gas incubator at 37° C. overnight.
After washing the 96 well white plate with PBS (Phosphate-buffered saline), 90 μl of HAM F12 medium containing 0.1% fatty acid-free bovine serum albumin (BSA) and 10 μl of test compound were added, which was cultured in a CO2 gas incubator at 37° C. for 48 hours. After removing the medium, 40 μl of PIKKAGENE 7.5 (produced by Wako Pure Chemical Industries, Ltd.) was added. After stirring, the luciferase activity was determined using Lumistar (produced by BMG Labtechnologies GmbH, Germany).
A fold induction was calculated based on the luciferase activity of each test compound by taking the luciferase activity in the non-treatment group as 1. The values of the test compound concentration and the fold induction were analyzed using PRISM 2.01 (produced by GraphPad Software Inc. USA) to calculate the EC50 values, the effective concentration of a test compound for 50% of the maximum fold induction.
(Introduction of Human PPARγ- and RXRα-Expressing Plasmid and Reporter Plasmid into CHO-K1 Cell and Establishment of Expressed Cell)
After a CHO-K1 cell cultured in a 750 ml tissue culture flask (produced by Corning Costar Corporation, USA) containing HAM F12 medium (produced by NISSUI SEIYAKU) supplemented with 10% Fetal Bovine Serum (produced by Life Technologies, Inc., USA) was scraped by treating with 0.5 g/L trypsin-0.2 g/L EDTA (ethylenediaminetetraacetic acid) (produced by Life Technologies, Inc., USA), the cell was washed with PBS (phosphate-buffered saline) (produced by Life Technologies, Inc., USA), centrifuged (1000 rpm, 5 minutes), and then suspended in PBS. Subsequently, a DNA was introduced into the cell under the condition shown below using GENE PULSER (produced by Bio-Rad Laboratories, USA).
Namely, to a cuvette having a 0.4 cm gap, added were 8×10^6 cells and 10 μg of plasmid pVgRXR2-hPPAR γ obtained in Reference Example 3 and 10 μg of reporter plasmid pGL3-4ERPP-TK neo obtained in Reference Example 4, which was subjected to electroporation at the voltage of 0.25 kV under the capacitance of 960 μF. Subsequently, the cell was transferred into a HAM F12 medium containing 10% Fetal Bovine Serum and cultured for 24 hours and then the cell was scraped again and centrifuged, and then suspended in HAM F12 medium containing 10% Fetal Bovine Serum supplemented with 500 μg/ml of GENETICIN (produced by Life Technologies, Inc., USA) and 250 μg/ml of ZEOCIN (produced by Invitrogen, USA) and diluted to the density of 10^4 cells/ml upon inoculation to a 96-well plate (produced by Corning Costar Corporation, USA), which was cultured in a CO2 gas incubator at 37° C., whereby obtaining a GENETICIN- and ZEOCIN-resistant transformant.
Subsequently, after the transformant cell line thus obtained was cultured in a 24-well plate (produced by Corning Costar Corporation, USA), selected was a cell line in which the luciferase was expressed and induced, i.e., PPARγ:RXRα:4ERPP/CHO-K1 cell by addition of 10 μM pioglitazone hydrochloride.
A general note: Reporter assays use an easily measured gene product as a stand-in for the process of interest.
`O=C(O)CCc1cn(Cc2ccc(OCc3coc(-c4ccccc4)n3)cc2)cc1-c1ccccc1` [Example 44, 3-[4-phenyl-1-[4-(2-phenyl-4-oxazolylmethoxy]benzyl]-3-pyrrolyl]propionic acid] gave an EC50 of 13 nM.

In the case of `Cc1oc(-c2ccccc2)nc1COc1ccc(Cn2cc(CCC(=O)O)c(-c3ccccc3)n2)cc1` [Example 89, 3-[1-[4-(5-methyl-2-phenyl-4-oxazolylmethoxy)benzyl]-3-phenyl-1H-pyrazol-4-yl]propionic acid], the concentration for a half-maximal effect (EC50) came to 0.23 nM.

As for `O=C(O)CCc1cn(Cc2ccc(OCc3csc(-c4ccco4)n3)cc2)cc1-c1ccccc1` [Example 38, 3-[1-[4-[2-(2-furyl)-4-thiazolylmethoxy]benzyl]-4-phenyl-3-pyrrolyl]propionic acid], the 50% effective concentration (EC50) is 38 nM.

Turning to `O=C(O)CCc1cn(Cc2ccc(OCc3cccnc3)cc2)cc1-c1ccccc1` [Example 12, 3-[4-phenyl-1-[4-(3-pyridylmethoxy)benzyl]-3-pyrrolyl]propionic acid], the EC50 is 320 nM.

The compound `Cc1oc(-c2cccs2)nc1COc1ccc(Cn2cc(CCC(=O)O)c(-c3ccccc3)c2)cc1` [Example 9, 3-[1-[4-[5-methyl-2-(2-thienyl)-4-oxazolylmethoxy]benzyl]-4-phenyl-3-pyrrolyl]propionic acid] came in with an EC50 of 1.5 nM.

Turning to `O=C(O)CCc1cn(Cc2ccc(OCc3csc(-c4cccs4)n3)cc2)cc1-c1ccccc1` [Example 40, 3-[4-phenyl-1-[4-[2-(2-thienyl)-4-thiazolylmethoxy]benzyl]-3-pyrrolyl]propionic acid], the EC50 worked out at 57 nM.

`CCOc1nn(Cc2ccc(OCc3nc(-c4ccccc4)oc3C)nc2)cc1CC(=O)O` [Example 262, 3-ethoxy-1-[6-(5-methyl-2-phenyl-4-oxazolylmethoxy)-3-pyridylmethyl]-1H-pyrazol-4-ylacetic acid] displayed an EC50 of 33 nM.

Compound `Cc1oc(-c2ccccc2)nc1COc1ccc(Cn2cc(CCC(=O)O)c(-c3ccccc3)n2)cn1` [Example 283, 3-[1-[2-(5-methyl-2-phenyl-4-oxazolylmethoxy)-5-pyridylmethyl]-3-phenyl-1H-pyrazol-4-yl]propionic acid] had a half-maximal effective concentration (EC50) of 0.22 nM.

`O=C(O)CCc1cn(Cc2ccc(OCc3csc(-c4ccccc4)n3)cc2)cc1-c1ccccc1` [Example 30, 3-[4-phenyl-1-[4-(2-phenyl-4-thiazolylmethoxy)benzyl]-3-pyrrolyl]propionic acid] had an EC50 of 9.7 nM.
